Results reported in patent US6960692B2, “Diaryl sulfide derivative, addition salt thereof, and immunosuppressant” (Kyorin Pharmaceutical Co., Ltd., priority 2001, dated 2005).

Assays:
male C3H/HeN mice = assay: Ability of test compounds to suppress graft host vs rejection in mice (popliteal lymph node weight); assay type: in vivo; details: right popliteal lymph node weight 4 days after injection of BALB/c stimulation cells
Text: Ability of Test Compounds to Suppress Graft Host vs Rejection in Mice […] Spleens were collected from 9 to 11 week old male BALB/c mice (CLEA JAPAN Inc., CHARLES RIVER JAPAN Inc., or JAPAN SLC Inc.). The spleens were placed in a phosphate-buffered saline (PBS(-), NISSUI PHARMACEUTICAL Co., Ltd.) or in an RPMI-1640 medium (GIBCO […] Inc., or IWAKI GLASS Co., Ltd.) and were either passed through a stainless steel mesh, or gently pressed between two slide glasses and then passed through a cell strainer (70 μm, Falcon), to form a cell suspension. The suspension was then centrifuged and the supernatant was discarded. An ammonium chloride-Tris isotonic buffer was added to the suspension to lyse erythrocytes. The cells were then centrifuged and washed three times in PBS (-) or RPMI-1640 medium and were resuspended in an RPMI-1640 medium. […] The cells were again centrifuged and washed in PBS (-) or RPMI-1640 medium and were resuspended in an RPMI-1640 medium so that the medium would contain 2.5×10^8 cells/mL. This suspension served as a “stimulation cell suspension.” Using a 27G needle along with a microsyringe (Hamilton), 20 μL (5×10^6 cells/mouse) of the stimulation cell suspension was subcutaneously injected into the right hind footpad of 7 to 9 week old male C3H/HeN mice (CLEA JAPAN Inc., CHARLES RIVER JAPAN Inc., or JAPAN SLC Inc.). […]

male BALB/c mice = assay: Ability of test compounds to suppress delayed-type hypersensitivity in mice (DNFB, ear thickness); assay type: in vivo; details: dose 1 mg/kg orally 30 minutes before DNFB challenge; ear thickness increase 24 hours after the challenge
Method: <Experiment 2> Ability of Test Compounds to Suppress Delayed-Type Hypersensitivity in Mice. […] The sensitization was done for 2 consecutive days (day 0 and day 1). On day 5, the mice were challenged with the antigen to induce delayed-type hypersensitive responses: First, the initial thickness of each ear was measured by the dial thickness gauge G (0.01-10 mm, OZAKI MFG Co., Ltd.) and a test compound was administered. 30 minutes after the administration, 10 μL of a 0.2% (v/v) DNFB solution was applied to the inner and outer surfaces of the right ear of each animal for antigen challenge. The left ear of each animal was challenged with the solvent alone. 24 hours after the challenge, the increase in the ear thickness was measured for each ear and the difference in thickness between the right and the left ears was determined for each individual. The test compound was dissolved, or suspended, in an ultra pure water and was orally administered at a dose of 0.1 mL/10 g of body weight. A control group was administered ultra pure water alone.

With Cl.NC(CO)(CO)CCCc1ccc(Sc2cccc(OCc3ccccc3)c2)cc1Cl [Example 36, 2-amino-2-[4-(3-benzyloxyphenylthio)-2-chlorophenyl]propyl-1,3-propanediol hydrochloride] the “Inhibition (%)” value (male C3H/HeN mice; dose 0.03 mg/kg intraperitoneally once a day for four consecutive days) was 85%, the “Inhibition (%)” value (male BALB/c mice) was 86% and the melting point was 132 to 133 °C.

For Cl.NC(CO)(CO)CCc1ccc(Sc2cccc(OCc3ccccc3)c2)cc1Cl [Example 46, 2-amino-2-[4-(3-benzyloxyphenylthio)-2-chlorophenyl]ethyl-1,3-propanediol Hydrochloride], the “Inhibition (%)” value (male C3H/HeN mice; dose 0.3 mg/kg intraperitoneally once a day for four consecutive days) was 80%.
